What was measured:
Format in all cases: biochemical
MAGL [1] = target: MAGL (Mus musculus (Mouse), UniProt O35678); test: In vitro competitive activity-based protein profiling, mouse proteomes (brain membrane fraction or cell lysates); settings: mouse proteome, read-out: MAGL % inh. 1 μM (mouse)
Description: (§1) In Vitro Competitive Activity-Based Protein Profiling.
(§2) Proteomes (mouse brain membrane fraction or cell lysates for mouse assays; human prefrontal cortex or PC3 cell membrane fractions for human assays) (50 μL, 1.0 or 2.0 mg/mL total protein concentration) were preincubated with varying concentrations of inhibitors at 37° C. After 30 min, FP-Rh or JW912 or HT-01 (1.0 μL, 50 μM in DMSO) was added and the mixture was incubated for another 30 min at 37° C. Reactions were quenched with SDS loading buffer (15 μL-4×) and run on SDS-PAGE. Following gel imaging, serine hydrolase activity was determined by measuring fluorescent intensity of gel bands corresponding to MAGL and FAAH using ImageJ 1.43u software.

FAAH = FAAH (Mus musculus (Mouse), UniProt O08914); test: as above; settings: mouse proteome, read-out: FAAH % inh. 1 μM (mouse)
Description: as §1, §2

MAGL [2] = target: MAGL (Homo sapiens (Human), UniProt Q99685); test: In vitro competitive activity-based protein profiling, human proteomes (prefrontal cortex or PC3 cell membrane fractions); settings: human proteome; for inhibition at 1 µM: read-out: MAGL % inh. 1 μM (human)
Description: as §1, §2

Sequence of MAGL (Homo sapiens (Human), UniProt Q99685) (Q99685 whole entry): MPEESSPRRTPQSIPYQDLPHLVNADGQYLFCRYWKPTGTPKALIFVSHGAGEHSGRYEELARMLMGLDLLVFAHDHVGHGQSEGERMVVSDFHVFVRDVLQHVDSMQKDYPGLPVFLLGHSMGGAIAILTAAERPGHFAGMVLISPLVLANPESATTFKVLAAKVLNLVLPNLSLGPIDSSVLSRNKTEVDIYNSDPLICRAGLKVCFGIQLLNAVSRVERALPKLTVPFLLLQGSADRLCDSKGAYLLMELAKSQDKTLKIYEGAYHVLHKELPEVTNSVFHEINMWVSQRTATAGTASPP
Sequence of MAGL (Mus musculus (Mouse), UniProt O35678) (O35678 whole entry): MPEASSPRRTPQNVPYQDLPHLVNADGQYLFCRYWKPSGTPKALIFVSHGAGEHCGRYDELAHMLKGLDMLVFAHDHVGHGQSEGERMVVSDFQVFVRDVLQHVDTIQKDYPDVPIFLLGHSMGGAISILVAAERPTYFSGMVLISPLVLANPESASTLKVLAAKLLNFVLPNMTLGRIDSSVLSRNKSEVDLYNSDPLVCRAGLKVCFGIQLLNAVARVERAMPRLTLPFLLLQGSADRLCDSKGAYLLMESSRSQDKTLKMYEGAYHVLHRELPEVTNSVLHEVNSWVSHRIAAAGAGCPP
Sequence of FAAH (O08914 whole entry): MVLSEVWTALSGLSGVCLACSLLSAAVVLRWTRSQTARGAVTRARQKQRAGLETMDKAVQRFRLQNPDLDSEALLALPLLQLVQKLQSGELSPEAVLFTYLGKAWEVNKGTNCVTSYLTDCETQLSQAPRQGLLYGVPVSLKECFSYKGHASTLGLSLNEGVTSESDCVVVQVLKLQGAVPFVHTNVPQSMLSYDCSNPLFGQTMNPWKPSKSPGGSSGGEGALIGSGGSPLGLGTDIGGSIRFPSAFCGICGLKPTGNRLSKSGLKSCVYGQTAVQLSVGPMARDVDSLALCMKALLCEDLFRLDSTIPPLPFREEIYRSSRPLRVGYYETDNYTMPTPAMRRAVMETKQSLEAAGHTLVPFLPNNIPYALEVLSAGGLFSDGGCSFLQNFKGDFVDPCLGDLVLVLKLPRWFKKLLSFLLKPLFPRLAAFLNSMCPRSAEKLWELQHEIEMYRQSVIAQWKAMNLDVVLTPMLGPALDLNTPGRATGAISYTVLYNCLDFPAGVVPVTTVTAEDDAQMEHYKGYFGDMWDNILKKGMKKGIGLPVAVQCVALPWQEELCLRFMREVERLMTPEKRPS

inhibition at 1 µM (MAGL [1]) [%] | inhibition at 1 µM (FAAH) [%] | inhibition at 1 µM (MAGL [2]) [%] | IC50 (MAGL [2]) [µM] | SMILES
> 75 | > 75 | – | – | CC(=O)Nc1ccn(C(=O)N2C[C@H]3C[C@H](N(C)Cc4ccccc4Cl)C[C@H]3C2)n1 [Example 36, N-(1-((3aR,5s,6aS)-5-((2-Chlorobenzyl)(methyl)amino)octahydrocyclopenta[c]pyrrole-2-carbonyl)-1H-pyrazol-3-yl)acetamide]
> 75 | – | > 75 | – | C[C@@H]1CN(C(=O)n2ccc(NS(C)(=O)=O)n2)CCN1Cc1ccc(Cl)c(N2CCC(C(F)(F)F)CC2)c1 [Example 202, (R)-N-(1-(4-(4-Chloro-3-(4-(trifluoromethyl)piperidin-1-yl)benzyl)-3-methylpiperazine-1-carbonyl)-1H-pyrazol-3-yl)methanesulfonamide]
> 75 | – | > 75 | < 0.1 | C[C@H]1CN(C(=O)n2ccc(NS(C)(=O)=O)n2)CCN1Cc1ccc(C(F)(F)F)c(N2CC3COCC3C2)c1 (stereo partly drawn) [Example 179, N-(1-((3S)-3-Methyl-4-(3-(tetrahydro-1H-furo[3,4-c]pyrrol-5(3H)-yl)-4-(trifluoromethyl)benzyl)piperazine-1-carbonyl)-1H-pyrazol-3-yl)methanesulfonamide]
> 75 | – | > 75 | < 0.1 | C[C@@H]1CN(Cc2ccc(C(F)(F)F)c(N3CC4COCC4C3)c2)CCN1C(=O)n1ccc(NS(C)(=O)=O)n1 (stereo partly drawn) [Example 180, N-(1-((2R)-2-Methyl-4-(3-(tetrahydro-1H-furo[3,4-c]pyrrol-5(3H)-yl)-4-(trifluoromethyl)benzyl)piperazine-1-carbonyl)-1H-pyrazol-3-yl)methanesulfonamide]
> 75 | – | > 75 | – | C[C@H]1CN(C(=O)n2ccc(NS(C)(=O)=O)n2)CCN1Cc1ccc(C(F)(F)F)c(N2CC[C@H](F)C2)c1 [Example 192, N-(1-((S)-4-(3-((S)-3-Fluoropyrrolidin-1-yl)-4-(trifluoromethyl)benzyl)-3-methylpiperazine-1-carbonyl)-1H-pyrazol-3-yl)methanesulfonamide]
> 75 | – | > 75 | – | C[C@H]1CN(C(=O)n2ccc(NS(C)(=O)=O)n2)CCN1Cc1cc(N2CCC(F)CC2)c(Cl)cn1 [Example 223, (S)-N-(1-(4-((5-Chloro-4-(4-fluoro-piperidin-1-yl)pyridin-2-yl)methyl)-3-methyl-piperazine-1-carbonyl)-1H-pyrazol-3-yl)methane-sulfonamide]
> 75 | – | > 75 | – | CS(=O)(=O)Nc1ccn(C(=O)N2CC[C@H](Oc3ccc(C(F)(F)F)c(N4CCC(F)CC4)c3)[C@@H](F)C2)n1 [Example 210, N-(1-((3S,4S)-3-Fluoro-4-(3-(4-fluoropiperidin-1-yl)-4-(trifluoromethyl)phenoxy)piperidine-1-carbonyl)-1H-pyrazol-3-yl)methanesulfonamide]
> 75 | – | > 75 | – | CC(=O)Nc1ccn(C(=O)N2CCC(N(C)Cc3cc(C(F)(F)F)cc(C4(C(=O)O)CCCC4)c3)CC2)n1 [Example 193, 1-(3-(((1-(3-Acetamido-1H-pyrazole-1-carbonyl)piperidin-4-yl)(methyl)amino)methyl)-5-(trifluoromethyl)phenyl)cyclopentane-1-carboxylic acid]
> 75 | – | > 75 | – | C[C@@H]1CN(C(=O)n2ccc(NS(C)(=O)=O)n2)CCN1Cc1ccc(Cl)c(N2CCCC2)c1 [Example 224, (R)-N-(1-(4-(4-Chloro-3-(pyrrolidin-1-yl)benzyl)-3-methyl-piperazine-1-carbonyl)-1H-pyrazol-3-yl)methane-sulfonamide]
> 75 | – | > 75 | – | C[C@@H]1CN(C(=O)n2ccc(NS(C)(=O)=O)n2)CCN1Cc1ccc(Cl)c(N2CCC[C@H]2C)c1 [Example 200, N-(1-((R)-4-(4-Chloro-3-((R)-2-methylpyrrolidin-1-yl)benzyl)-3-methylpiperazine-1-carbonyl)-1H-pyrazol-3-yl)methanesulfonamide]
> 75 | – | > 75 | < 0.1 | CS(=O)(=O)Nc1ccn(C(=O)N2CCN(Cc3ccc(C(F)(F)F)c(N4CC5COCC5C4)c3)CC2)n1 (stereo not drawn) [Example 181, N-(1-(4-(3-(Tetrahydro-1H-furo[3,4-c]pyrrol-5(3H)-yl)-4-(trifluoromethyl)benzyl)piperazine-1-carbonyl)-1H-pyrazol-3-yl)methanesulfonamide]
> 75 | – | > 75 | < 0.1 | C[C@H]1CN(Cc2ccc(C(F)(F)F)c(N3CC4COCC4C3)c2)CCN1C(=O)n1ccc(NS(C)(=O)=O)n1 (stereo partly drawn) [Example 178, N-(1-((2S)-2-Methyl-4-(3-(tetrahydro-1H-furo[3,4-c]pyrrol-5(3H)-yl)-4-(trifluoromethyl)benzyl)piperazine-1-carbonyl)-1H-pyrazol-3-yl)methanesulfonamide]
> 75 | – | > 75 | < 0.1 | CN(Cc1cc(Cl)ccc1C(F)(F)F)CC1CCN(C(=O)n2ccc(NS(C)(=O)=O)n2)CC1 [Example 184, N-(1-(4-(((5-Chloro-2-(trifluoromethyl)benzyl)(methyl)amino)methyl)piperidine-1-carbonyl)-1H-pyrazol-3-yl)methanesulfonamide]
> 75 | – | > 75 | – | CN(Cc1ccc(Cl)c(N2CC3COCC3C2)c1)C1CCN(C(=O)n2ccc(NS(C)(=O)=O)n2)CC1 (stereo not drawn) [Example 177, N-(1-(4-((4-Chloro-3-(tetrahydro-1H-furo[3,4-c]pyrrol-5(3H)-yl)benzyl)(methyl)amino)piperidine-1-carbonyl)-1H-pyrazol-3-yl)methanesulfonamide]
> 75 | – | > 75 | – | CC(=O)Nc1ccn(C(=O)N2CC3CN(Cc4cc(C(F)(F)F)cc(C5(C(=O)O)CCCC5)c4)CC3C2)n1 (stereo not drawn) [Example 191, 1-(3-((5-(3-Acetamido-1H-pyrazole-1-carbonyl)hexahydropyrrolo[3,4-c]pyrrol-2(1H)-yl)methyl)-5-(trifluoromethyl)phenyl)cyclopentane-1-carboxylic acid]
> 75 | – | > 75 | – | CN(Cc1ccc(Cl)c(N2CCCC2)c1)C1(C)CCN(C(=O)n2ccc(NS(C)(=O)=O)n2)CC1 [Example 183, N-(1-(4-((4-Chloro-3-(pyrrolidin-1-yl)benzyl)(methyl)amino)-4-methylpiperidine-1-carbonyl)-1H-pyrazol-3-yl)methanesulfonamide]
> 75 | – | > 75 | – | CN(Cc1ccc(Cl)cc1N1CCC(F)CC1)C1(C)CCN(C(=O)n2ccc(NS(C)(=O)=O)n2)CC1 [Example 196, N-(1-(4-((4-Chloro-2-(4-fluoropiperidin-1-yl)benzyl)(methyl)amino)-4-methylpiperidine-1-carbonyl)-1H-pyrazol-3-yl)methanesulfonamide]
> 75 | – | > 75 | < 0.1 | CC(=O)Nc1ccn(C(=O)N2CCC3(CCN(Cc4cccc(C(F)(F)F)c4)C3)CC2)n1 [Example 175, N-(1-(2-(3-(Trifluoromethyl)benzyl)-2,8-diazaspiro[4.5]decane-8-carbonyl)-1H-pyrazol-3-yl)acetamide]

From patent US11149037B2, “Pyrazole MAGL inhibitors” (H. Lundbeck A/S, priority 2017, dated 2021)
